Drug sensitivity score and normalised viability data for six compounds are collected here from the supplement of paper PMC4862054.

Holding throughout (details): incubation time: 72 h
Assay [1] has as its system HDQ-P1. As to the kind of experiment: drug sensitivity score (DSS), CellTiter-Blue viability (DSS (AUC-based score)); higher = stronger viability inhibition; extreme values may be limits of the assay. Here is the method: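 DSRT with the CellTiter-Blue (resazurin reduction) viability readout, fluorescence 560/590 nm, 72 h incubation. Plates were normalised to DMSO and benzethonium chloride controls. DSS is computed from the area under the fitted dose-response curve (5 or 9 concentrations).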
(In general: The colour change of resazurin is a common sign of viable cells or microbes.)

For a further assay, the system named is SK-BR-3. As to the kind of experiment: normalised viability (% of control), CellTiter-Blue; higher = more viable cells (about 100 = DMSO control). Here is the method:
(§1)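 DSRT, CellTiter-Blue viability, 72 h incubation. Signal is normalised to DMSO and benzethonium chloride controls. Value is the normalised response at dose 3.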

Another assay has as its system HCC1143. Described as above. Here is the method: as §1
Another assay relates to HCC1599. The description is as above. Here is the method: as §1
For the next assay, the system named is MDA-MB-468. Described as above. Here is the method:
as §1

The test system of assay [2] is HDQ-P1. The description is as above. Here is the method:
as §1

A further assay relates to MDA-MB-453. The description is as above. Here is the method: as §1
Another assay deals with BT-474. The assay is described as above. Here is the method:
as §1

Another assay has as its system CAL-85-1. The assay is described as above. Here is the method: as §1
Assay [3] relates to MDA-MB-231. The description is as above. Here is the method:
as §1

Another assay has as its system CAL-120. The assay is described as above. Here is the method:
as §1

For a further assay, the system named is CAL-148. The assay is described as above. Here is the method: as §1
The subject of another assay is CAL-51. The description is as above. Here is the method: as §1
For a further assay, the system named is MFM-223. The assay is described as above. Here is the method:
as §1

In assay [4] the test system is Hs578T. The assay is described as above. Here is the method: as §1
The subject of assay [5] is HCC1937. Described as above. Here is the method:
as §1

The test system of another assay is BT-549. Described as above. Here is the method:
as §1

The test system of a further assay is MDA-MB-436. The description is as above. Here is the method:
as §1

In another assay the test system is DU-4475. The description is as above. Here is the method:
as §1

In assay [6] the test system is MDA-MB-231. As to the kind of experiment: drug sensitivity score (DSS), CellTox Green (DSS (AUC-based score)); higher = stronger drug effect (viability inhibition or cytotoxicity); extreme values may be limits of the assay. A digest of the protocol:
(§2)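 Using 20 µl of cell suspension per well, breast cancer cell lines were seeded into 384-well plates pre-loaded with compound at 5 concentrations in 10-fold steps across a compound-specific 10,000-fold range. Incubation lasted 72 h, after which CellTox Green fluorescence at 485/520 nm and then CellTiter-Glo luminescence, following 10 min at room temperature, were recorded. Each plate was normalised to 0.1 % DMSO and a positive kill control before the drug sensitivity score was derived from the area under the fitted dose-response curve.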

Assay [7] concerns Hs578T. Described as above. A digest of the protocol: as §2
The subject of assay [8] is HCC1937. Described as above. A digest of the protocol:
as §2

Take `C=CC[C@@H]1/C=C(\C)C[C@H](C)C[C@H](OC)[C@H]2O[C@@](O)(C(=O)C(=O)N3CCCC[C@H]3C(=O)O[C@H](/C(C)=C/[C@@H]3CC[C@@H](O)[C@H](OC)C3)[C@H](C)[C@@H](O)CC1=O)[C@H](C)C[C@@H]2OC` [Tacrolimus]: the drug sensitivity score with HDQ-P1 [1] worked out at 0; with MDA-MB-231 [6], 2.92; with Hs578T [7], 0; in the assay with HCC1937 [8], 0. Further, the normalised viability is 91.8% in the assay on SK-BR-3 (100 nM); 110% with HCC1143 (100 nM); 123% with HCC1599 (100 nM); 119% in the assay on MDA-MB-468 (100 nM); 119% in the assay on HDQ-P1 [2] (10 nM); 112% in the assay on MDA-MB-453 (10 nM). Moreover, the normalised viability was 113% in the assay with BT-474 (100 nM); 101% in the assay on CAL-85-1 (10 nM); 112% in the assay with MDA-MB-231 [3] (100 nM); 110% with CAL-120 (100 nM); 102% with CAL-148 (10 nM); 101% with CAL-51 (10 nM). Further, the normalised viability in the assay with MFM-223 (100 nM) is 99.2%; in the assay on Hs578T [4] (100 nM), 109%; in the assay with HCC1937 [5] (100 nM), 93.7%; with BT-549 (100 nM), 102%; with MDA-MB-436 (100 nM), 108%; with DU-4475 (10 nM), 112%.

Consider `C=CCNC1=C2C[C@@H](C)C[C@H](OC)[C@H](O)[C@@H](C)/C=C(\C)[C@H](OC(N)=O)[C@@H](OC)/C=C\C=C(/C)C(=O)NC(=CC1=O)C2=O` [Tanespimycin], for which the drug sensitivity score in the assay on HDQ-P1 [1] amounted to 19.3; in the assay on MDA-MB-231 [6], 25.3; with Hs578T [7], 1.53; in the assay on HCC1937 [8], 0. The normalised viability in the assay with SK-BR-3 (100 nM) turned out to be 16.5%; with HCC1143 (100 nM), 33.4%; with HCC1599 (100 nM) it was 61.2%; in the assay with MDA-MB-468 (100 nM), 109%; in the assay on HDQ-P1 [2] (10 nM), 93.5%; with MDA-MB-453 (10 nM) it was 81%. In addition, the normalised viability with BT-474 (100 nM) was 35.3%; in the assay on CAL-85-1 (10 nM), 98.4%; with MDA-MB-231 [3] (100 nM) it was 114%; in the assay on CAL-120 (100 nM), 72.7%; in the assay with CAL-148 (10 nM) it was 94%; in the assay on CAL-51 (10 nM), 118%. For the same compound, the normalised viability with MFM-223 (100 nM) worked out at 29.2%; in the assay on Hs578T [4] (100 nM) it was 50.2%; in the assay with HCC1937 [5] (100 nM) it was 37.3%; in the assay on BT-549 (100 nM), 32.9%; in the assay on MDA-MB-436 (100 nM), 26.3%; with DU-4475 (10 nM), 106%.

As for `CO[C@H]1C[C@@H]2CC[C@@H](C)[C@@](O)(O2)C(=O)C(=O)N2CCCC[C@H]2C(=O)O[C@H]([C@H](C)C[C@@H]2CC[C@@H](OC(=O)C(C)(CO)CO)[C@H](OC)C2)CC(=O)[C@H](C)/C=C(\C)[C@@H](O)[C@@H](OC)C(=O)[C@H](C)C[C@H](C)/C=C/C=C/C=C/1C` [Temsirolimus], the drug sensitivity score amounted to 7.62 in the assay with HDQ-P1 [1], 0 with MDA-MB-231 [6], 22.6 with Hs578T [7] and 0 with HCC1937 [8]. The normalised viability in the assay with SK-BR-3 (10 nM) was 50.5%; in the assay on HCC1143 (10 nM) it was 77.1%; with HCC1599 (10 nM), 90.8%; in the assay with MDA-MB-468 (10 nM) it was 68.3%; in the assay on HDQ-P1 [2] (1 nM), 90.9%; in the assay with MDA-MB-453 (1 nM), 32%. For the same compound, the normalised viability in the assay with BT-474 (10 nM) was found to be 69.3%; in the assay with CAL-85-1 (1 nM), 65.7%; in the assay with MDA-MB-231 [3] (10 nM), 68%; in the assay with CAL-120 (10 nM) it was 55.8%; in the assay on CAL-148 (1 nM), 54.5%; in the assay with CAL-51 (1 nM), 73.9%. Moreover, the normalised viability with MFM-223 (10 nM) was found to be 49.8%; in the assay with Hs578T [4] (10 nM), 50.2%; in the assay with HCC1937 [5] (10 nM) it was 56.5%; in the assay with BT-549 (10 nM), 68.2%; with MDA-MB-436 (10 nM), 85.8%; in the assay on DU-4475 (1 nM), 89.8%.

As for `C[C@]1(c2nc3c(C(N)=O)cccc3[nH]2)CCCN1` [Veliparib], the drug sensitivity score in the assay on HDQ-P1 [1], in the assay on MDA-MB-231 [6], in the assay on Hs578T [7] and with HCC1937 [8] was 0 throughout. Besides, the normalised viability with SK-BR-3 (100 nM) was determined as 72.5%; in the assay on HCC1143 (100 nM), 75.6%; in the assay on HCC1599 (100 nM) it was 116%; with MDA-MB-468 (100 nM), 97.6%; with HDQ-P1 [2] (10 nM), 103%; in the assay with MDA-MB-453 (10 nM), 99.4%. For the same compound, the normalised viability in the assay on BT-474 (100 nM) worked out at 101%; with CAL-85-1 (10 nM) it was 90.8%; in the assay with MDA-MB-231 [3] (100 nM) it was 92.3%; in the assay on CAL-120 (100 nM), 74.8%; with CAL-148 (10 nM), 89.1%; in the assay on CAL-51 (10 nM) it was 113%. Also, the normalised viability was found to be 89.9% in the assay on MFM-223 (100 nM); 76.7% in the assay with Hs578T [4] (100 nM); 85.4% with HCC1937 [5] (100 nM); 104% in the assay on BT-549 (100 nM); 84.1% in the assay on MDA-MB-436 (100 nM); 98.2% in the assay with DU-4475 (10 nM).

Consider `CC[C@]1(O)C[C@@H]2CN(CCc3c([nH]c4ccccc34)[C@@](C(=O)OC)(c3cc4c(cc3OC)N(C)[C@H]3[C@@](O)(C(=O)OC)[C@H](OC(C)=O)[C@]5(CC)C=CCN6CC[C@]43[C@@H]65)C2)C1` [Vinblastine], for which the drug sensitivity score came to 18.2 in the assay with HDQ-P1 [1], 17 in the assay on MDA-MB-231 [6], 21.4 with Hs578T [7] and 0 in the assay with HCC1937 [8]. Further, the normalised viability in the assay on SK-BR-3 (10 nM) amounted to 13%; in the assay on HCC1143 (10 nM) it was 40.6%; in the assay with HCC1599 (10 nM), 107%; in the assay with MDA-MB-468 (10 nM) it was 39.3%; in the assay on HDQ-P1 [2] (1 nM), 106%; in the assay on MDA-MB-453 (1 nM), 98.4%. Moreover, the normalised viability was found to be 49.7% with BT-474 (10 nM); 101% in the assay with CAL-85-1 (1 nM); 20.1% in the assay on MDA-MB-231 [3] (10 nM); 19.1% in the assay with CAL-120 (10 nM); 107% in the assay on CAL-148 (1 nM); 114% in the assay on CAL-51 (1 nM). Besides, the normalised viability in the assay with MFM-223 (10 nM) was found to be 76.7%; in the assay with Hs578T [4] (10 nM), 14.7%; in the assay on HCC1937 [5] (10 nM), 20.6%; in the assay with BT-549 (10 nM) it was 26.3%; in the assay with MDA-MB-436 (10 nM), 51.5%; in the assay with DU-4475 (1 nM), 102%.

For `CS(=O)(=O)c1ccc(C(=O)Nc2ccc(Cl)c(-c3ccccn3)c2)c(Cl)c1` [Vismodegib], the drug sensitivity score in the assay with HDQ-P1 [1] turned out to be 0; with MDA-MB-231 [6] it was 0; in the assay on Hs578T [7], 1.09; with HCC1937 [8], 0. For the same compound, the normalised viability in the assay with SK-BR-3 (100 nM) was 66.7%; in the assay with HCC1143 (100 nM), 87.7%; in the assay on HCC1599 (100 nM), 86.2%; in the assay with MDA-MB-468 (100 nM), 113%; in the assay with HDQ-P1 [2] (10 nM), 105%; in the assay on MDA-MB-453 (10 nM) it was 108%. Besides, the normalised viability in the assay on BT-474 (100 nM) was determined as 101%; with CAL-85-1 (10 nM) it was 114%; with MDA-MB-231 [3] (100 nM), 94%; with CAL-120 (100 nM) it was 87.7%; in the assay on CAL-148 (10 nM) it was 96.8%; with CAL-51 (10 nM), 103%. Also, the normalised viability was 104% with MFM-223 (100 nM); 80.1% in the assay with Hs578T [4] (100 nM); 107% with HCC1937 [5] (100 nM); 112% in the assay with BT-549 (100 nM); 85.6% in the assay on MDA-MB-436 (100 nM); 108% with DU-4475 (10 nM).
